Laboratory results from the supplement of paper PMC10307832.

What was measured:
Test in all cases: relative viability (nuclei count vs DMSO), 5 days (fraction); higher = more cells survive
201T = test system: 201T
Summary of the method: (§1)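 One day after seeding in 1536-well plates, lung cancer cell lines were dosed by pin tool. Dosing was either single-drug or a fixed anchor-drug dose plus five library-drug doses (not always all listed) in √10 steps. After 5 days, nuclei were stained in one fix-and-stain step and counted on 4× images, and relative viability is the nuclei count of treated wells over that of vehicle wells, given as the median of duplicate plates.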

BEN = test system: BEN
Summary of the method: as §1

COR-L 105 = test system: COR-L 105
Summary of the method: as §1

COR-L23 = test system: COR-L23
Summary of the method: as §1

EKVX = test system: EKVX
Summary of the method: as §1

HARA = test system: HARA
Summary of the method: as §1

HCC-15 = test system: HCC-15
Summary of the method: as §1

HCC-366 = test system: HCC-366
Summary of the method: as §1

HCC-78 = test system: HCC-78
Summary of the method: as §1

HCC-827 = test system: HCC-827
Summary of the method: as §1

LC-2-ad = test system: LC-2-ad
Summary of the method: as §1

LU99A = test system: LU99A
Summary of the method: as §1

LXF-289 = test system: LXF-289
Summary of the method: as §1

NCI-H1650 = test system: NCI-H1650
Summary of the method: as §1

NCI-H1734 = test system: NCI-H1734
Summary of the method: as §1

NCI-H1755 = test system: NCI-H1755
Summary of the method: as §1

NCI-H1944 = test system: NCI-H1944
Summary of the method: as §1

NCI-H1975 = test system: NCI-H1975
Summary of the method: as §1

NCI-H1993 = test system: NCI-H1993
Summary of the method: as §1

NCI-H3122 = test system: NCI-H3122
Summary of the method: as §1

NCI-H596 = test system: NCI-H596
Summary of the method: as §1

RERF-LC-KJ = test system: RERF-LC-KJ
Summary of the method: as §1

SK-LU-1 = test system: SK-LU-1
Summary of the method: as §1

`Cc1cnc(-c2cnc(NCCNc3ccc(C#N)cn3)nc2-c2ccc(Cl)cc2Cl)[nH]1` + N=C(N)NC(=N)NCCc1ccccc1 [Phenformin] (partner 250 µM) was tested, and the relative viability (201T; first compound 0.08 µM) was 0.469, the relative viability (201T; first compound 0.8 µM) was 0.397 and the relative viability (201T; first compound 2.53 µM) was 0.473. The relative viability (BEN; first compound 0.08 µM) was 0.232, the relative viability (BEN; first compound 0.253 µM) was 0.269 and the relative viability (BEN; first compound 0.8 µM) was 0.252. It also gave a relative viability (BEN; first compound 2.53 µM) of 0.261, a relative viability (COR-L 105; first compound 0.08 µM) of 0.532 and a relative viability (COR-L 105; first compound 0.253 µM) of 0.487. The relative viability (COR-L 105; first compound 0.8 µM) was 0.53, the relative viability (COR-L 105; first compound 2.53 µM) was 0.357 and the relative viability (COR-L23; first compound 0.08 µM) was 0.493. It also gave a relative viability (COR-L23; first compound 0.253 µM) of 0.449, a relative viability (COR-L23; first compound 2.53 µM) of 0.408 and a relative viability (EKVX; first compound 0.08 µM) of 0.192. It also gave a relative viability (EKVX; first compound 0.253 µM) of 0.226, a relative viability (EKVX; first compound 0.8 µM) of 0.196 and a relative viability (EKVX; first compound 2.53 µM) of 0.222. The relative viability (HARA; first compound 0.08 µM) was 0.451, the relative viability (HARA; first compound 0.253 µM) was 0.413 and the relative viability (HARA; first compound 0.8 µM) was 0.477. The relative viability (HARA; first compound 2.53 µM) was 0.412, the relative viability (HCC-15; first compound 0.08 µM) was 0.462 and the relative viability (HCC-15; first compound 0.253 µM) was 0.415. The relative viability (HCC-15; first compound 0.8 µM) was 0.471, the relative viability (HCC-15; first compound 2.53 µM) was 0.412 and the relative viability (HCC-366; first compound 0.08 µM) was 0.606. For the same molecule, the relative viability (HCC-366; first compound 0.253 µM) was 0.455, the relative viability (HCC-366; first compound 0.8 µM) was 0.557 and the relative viability (HCC-366; first compound 2.53 µM) was 0.507. The relative viability (HCC-78; first compound 0.08 µM) was 0.804, the relative viability (HCC-78; first compound 0.253 µM) was 0.675 and the relative viability (HCC-78; first compound 0.8 µM) was 0.636. The relative viability (HCC-78; first compound 2.53 µM) was 0.645, the relative viability (HCC-827; first compound 0.08 µM) was 0.384 and the relative viability (HCC-827; first compound 0.8 µM) was 0.362. For the same molecule, the relative viability (HCC-827; first compound 2.53 µM) was 0.337, the relative viability (LC-2-ad; first compound 0.08 µM) was 0.591 and the relative viability (LC-2-ad; first compound 0.253 µM) was 0.515. For the same molecule, the relative viability (LC-2-ad; first compound 2.53 µM) was 0.487, the relative viability (LU99A; first compound 0.08 µM) was 0.972 and the relative viability (LU99A; first compound 0.253 µM) was 0.769. It also gave a relative viability (LU99A; first compound 0.8 µM) of 0.962, a relative viability (LU99A; first compound 2.53 µM) of 0.752 and a relative viability (LXF-289; first compound 0.08 µM) of 0.508. For the same molecule, the relative viability (LXF-289; first compound 0.253 µM) was 0.482, the relative viability (LXF-289; first compound 0.8 µM) was 0.536 and the relative viability (LXF-289; first compound 2.53 µM) was 0.503. The relative viability (NCI-H1650; first compound 0.08 µM) was 0.497, the relative viability (NCI-H1650; first compound 0.253 µM) was 0.428 and the relative viability (NCI-H1650; first compound 0.8 µM) was 0.384. The relative viability (NCI-H1650; first compound 2.53 µM) was 0.276, the relative viability (NCI-H1734; first compound 0.08 µM) was 0.49 and the relative viability (NCI-H1734; first compound 0.253 µM) was 0.379. The relative viability (NCI-H1734; first compound 0.8 µM) was 0.391, the relative viability (NCI-H1734; first compound 2.53 µM) was 0.355 and the relative viability (NCI-H1755; first compound 0.08 µM) was 0.633. For the same molecule, the relative viability (NCI-H1755; first compound 0.253 µM) was 0.604, the relative viability (NCI-H1755; first compound 0.8 µM) was 0.634 and the relative viability (NCI-H1755; first compound 2.53 µM) was 0.572. For the same molecule, the relative viability (NCI-H1944; first compound 0.08 µM) was 0.203, the relative viability (NCI-H1944; first compound 0.8 µM) was 0.221 and the relative viability (NCI-H1944; first compound 2.53 µM) was 0.195. The relative viability (NCI-H1975; first compound 0.08 µM) was 0.418, the relative viability (NCI-H1975; first compound 0.253 µM) was 0.405 and the relative viability (NCI-H1975; first compound 0.8 µM) was 0.384. It also gave a relative viability (NCI-H1975; first compound 2.53 µM) of 0.286, a relative viability (NCI-H1993; first compound 0.08 µM) of 0.493 and a relative viability (NCI-H1993; first compound 0.253 µM) of 0.477. It also gave a relative viability (NCI-H1993; first compound 0.8 µM) of 0.521, a relative viability (NCI-H1993; first compound 2.53 µM) of 0.535 and a relative viability (NCI-H3122; first compound 0.08 µM) of 0.367. The relative viability (NCI-H3122; first compound 0.8 µM) was 0.383, the relative viability (NCI-H3122; first compound 2.53 µM) was 0.327 and the relative viability (NCI-H596; first compound 0.08 µM) was 0.834. For the same molecule, the relative viability (NCI-H596; first compound 0.253 µM) was 0.763, the relative viability (NCI-H596; first compound 0.8 µM) was 0.595 and the relative viability (NCI-H596; first compound 2.53 µM) was 0.761. For the same molecule, the relative viability (RERF-LC-KJ; first compound 0.08 µM) was 0.436, the relative viability (RERF-LC-KJ; first compound 0.253 µM) was 0.445 and the relative viability (RERF-LC-KJ; first compound 0.8 µM) was 0.426. For the same molecule, the relative viability (RERF-LC-KJ; first compound 2.53 µM) was 0.354, the relative viability (SK-LU-1; first compound 0.08 µM) was 0.649 and the relative viability (SK-LU-1; first compound 0.253 µM) was 0.533. The relative viability (SK-LU-1; first compound 0.8 µM) was 0.576 and the relative viability (SK-LU-1; first compound 2.53 µM) was 0.557.
